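48-hour exposure; five concentrations; linearly interpolated endpoints. GI50 = concentration required for 50% inhibition of growth.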 Activity calls are given as the source filed them. Cut-off read from the data, not from the text of the source: active = GI50 up to about 1.1 µM and inactive = higher.
How the values were obtained:
Assay in all cases: NCI-60 cell line screen, 48 h
[1] = tested on: HCC 2998
[2] = tested on: K562
[3] = tested on: U-251
[4] = tested on: SNB-75
[5] = tested on: Hs-578T
[6] = tested on: RXF 393
[7] = tested on: RPMI-8226
[8] = tested on: ACHN
[9] = tested on: HL-60
[10] = tested on: DU-145
[11] = tested on: LOX IMVI
[12] = tested on: SR
[13] = tested on: OVCAR-3
[14] = tested on: MOLT-4
[15] = tested on: SN12C
[16] = tested on: OVCAR-5
[17] = tested on: OVCAR-8
[18] = tested on: UACC-257
[19] = tested on: HOP-62
[20] = tested on: SF-295
[21] = tested on: T47D
[22] = tested on: SF-268
[23] = tested on: SK-MEL-5
[24] = tested on: UO-31
[25] = tested on: PC-3
[26] = tested on: MCF7
[27] = tested on: NCI-H23
[28] = tested on: M14
[29] = tested on: NCI-H522
[30] = tested on: 786-0
[31] = tested on: NCI/ADR-RES
[32] = tested on: OVCAR-4
[33] = tested on: CCRF-CEM
[34] = tested on: SK-MEL-28
[35] = tested on: HOP-92
[36] = tested on: EKVX
[37] = tested on: HCT-15
[38] = tested on: IGROV-1
[39] = tested on: KM12
[40] = tested on: HCT-116
[41] = tested on: A549
[42] = tested on: NCI-H460
[43] = tested on: HT-29
[44] = tested on: BT-549
[45] = tested on: NCI-H226
[46] = tested on: UACC-62
[47] = tested on: CAKI-1
[48] = tested on: MDA-MB-231
[49] = tested on: Malme-3M
[50] = tested on: SK-MEL-2
[51] = tested on: MDA-N
[52] = tested on: COLO 205
[53] = tested on: TK-10
[54] = tested on: SNB-19
[55] = tested on: SK-OV-3
[56] = tested on: MDA-MB-435
[57] = tested on: SW-620
[58] = tested on: SF-539

Measured: GI50

COc1cc(C=C(c2ccc(N(C)C)cc2)c2ccc(N(C)C)cc2)c2ccccc2c1OC
40.4 µM: [37]
inactive: [1] 87.7 µM | [2] 17.5 µM | [3] 54 µM | [4] 36.3 µM | [5] 43.2 µM | [6] > 100 µM | [7] 45.8 µM | [8] 49.4 µM | [9] 9.29 µM | [10] > 100 µM | [11] 64.9 µM | [12] 22.3 µM | [13] 27.2 µM | [14] > 100 µM | [15] > 100 µM | [16] > 100 µM | [17] > 100 µM | [18] 76.7 µM | [19] 64 µM | [20] 30.3 µM | [21] > 100 µM | [22] > 100 µM | [23] 51.9 µM | [24] > 100 µM | [25] 41.6 µM | [26] 26.2 µM | [27] > 100 µM | [28] 63.1 µM | [29] 25.4 µM | [30] > 100 µM | [31] 23.4 µM | [32] 70.3 µM | [33] 18.6 µM | [34] 93.8 µM | [35] > 100 µM | [36] > 100 µM | [38] > 100 µM | [39] 38.4 µM | [40] 35.1 µM | [41] > 100 µM | [42] 96.2 µM | [43] 19 µM | [44] 35.2 µM | [45] 41 µM | [46] 27.4 µM | [47] > 100 µM | [48] > 100 µM | [49] 70.8 µM | [50] 33.9 µM | [51] 16.2 µM | [52] 55.7 µM | [53] > 100 µM | [54] > 100 µM | [55] > 100 µM | [56] 22.3 µM

COc1ccc(C2C(C#N)=C(S)N(C3OC(COC(C)=O)C(OC(C)=O)C(OC(C)=O)C3OC(C)=O)C(C)=C2C(C)=O)cc1 (stereo not drawn)
inactive: [1] > 100 µM | [2] 28.1 µM | [3] > 100 µM | [4] 26.4 µM | [5] 59.3 µM | [6] 40.5 µM | [7] 73.1 µM | [8] 77.1 µM | [9] 46.3 µM | [10] > 100 µM | [11] > 100 µM | [12] 49.1 µM | [13] 64.7 µM | [14] 20.1 µM | [57] 42.3 µM | [15] > 100 µM | [16] > 100 µM | [18] > 100 µM | [19] > 100 µM | [20] > 100 µM | [21] 28.6 µM | [22] > 100 µM | [23] 26.4 µM | [24] 81.8 µM | [25] 31.3 µM | [26] > 100 µM | [27] > 100 µM | [28] 57 µM | [30] > 100 µM | [31] > 100 µM | [32] 53 µM | [33] 30.3 µM | [34] > 100 µM | [35] 30 µM | [38] > 100 µM | [39] > 100 µM | [40] 65 µM | [41] 70.6 µM | [42] 83.4 µM | [43] 71.3 µM | [44] 52.4 µM | [46] 57.5 µM | [47] > 100 µM | [48] > 100 µM | [49] > 100 µM | [50] > 100 µM | [51] 46.1 µM | [52] 58.2 µM | [53] > 100 µM | [54] > 100 µM | [55] > 100 µM | [58] > 100 µM | [56] 66.4 µM
> 100 µM: [37]

CCOC(=O)[C@@H]1C[C@@H]1c1ccc(O)c(O)c1
inactive: [1] 24.9 µM | [2] 13.8 µM | [3] 72.1 µM | [5] 43.1 µM | [6] 21.1 µM | [7] 18.1 µM | [8] 42.8 µM | [10] 64 µM | [12] 14.5 µM | [13] 16.6 µM | [14] 6.18 µM | [57] 14.3 µM | [15] 78.2 µM | [16] > 100 µM | [17] 21.8 µM | [18] 39.2 µM | [19] 17.6 µM | [20] 59.7 µM | [21] 16 µM | [22] 30.8 µM | [23] 14.4 µM | [24] 10.7 µM | [25] 12.7 µM | [26] 16.9 µM | [27] 43.4 µM | [28] 11 µM | [29] 4.62 µM | [30] 16.1 µM | [31] 46.6 µM | [34] 30.8 µM | [35] 36.7 µM | [36] 38.6 µM | [38] 35.3 µM | [39] 26 µM | [40] 16.3 µM | [41] 29.4 µM | [42] 58.9 µM | [43] 50.2 µM | [44] 19.7 µM | [45] 22.5 µM | [46] 13.4 µM | [47] 38.1 µM | [48] 11 µM | [49] 49.2 µM | [50] 29.7 µM | [51] 17.1 µM | [52] 27.4 µM | [53] > 100 µM | [54] 49 µM | [55] 44.8 µM | [58] 20.6 µM | [56] 16.9 µM
45.5 µM: [37]
